According to patent publication US10508113B2, “Inhibitors of tyrosine kinase 2 mediated signaling” (AbbVie Inc., priority 2018, dated 2019):

Experiments:
Jak2 = molecular target: T1, Jak2 (Homo sapiens, UniProt O60674); assay: Jak2 (PSTATS UT7) alpha screen assay: inhibition of EPO induced phosphorylation of STAT5 in UT7 cells; type: cell-based; conditions: calculated from tabulated EC50 data (Jak2 / Tyk2)
T1 construct: Cell Type: UT7 cells engineered to express the erythropoietin (EPO) receptor; endogenous in cells; host or cells: UT7 cells engineered to express the EPO receptor
T1 sequence (O60674 whole entry): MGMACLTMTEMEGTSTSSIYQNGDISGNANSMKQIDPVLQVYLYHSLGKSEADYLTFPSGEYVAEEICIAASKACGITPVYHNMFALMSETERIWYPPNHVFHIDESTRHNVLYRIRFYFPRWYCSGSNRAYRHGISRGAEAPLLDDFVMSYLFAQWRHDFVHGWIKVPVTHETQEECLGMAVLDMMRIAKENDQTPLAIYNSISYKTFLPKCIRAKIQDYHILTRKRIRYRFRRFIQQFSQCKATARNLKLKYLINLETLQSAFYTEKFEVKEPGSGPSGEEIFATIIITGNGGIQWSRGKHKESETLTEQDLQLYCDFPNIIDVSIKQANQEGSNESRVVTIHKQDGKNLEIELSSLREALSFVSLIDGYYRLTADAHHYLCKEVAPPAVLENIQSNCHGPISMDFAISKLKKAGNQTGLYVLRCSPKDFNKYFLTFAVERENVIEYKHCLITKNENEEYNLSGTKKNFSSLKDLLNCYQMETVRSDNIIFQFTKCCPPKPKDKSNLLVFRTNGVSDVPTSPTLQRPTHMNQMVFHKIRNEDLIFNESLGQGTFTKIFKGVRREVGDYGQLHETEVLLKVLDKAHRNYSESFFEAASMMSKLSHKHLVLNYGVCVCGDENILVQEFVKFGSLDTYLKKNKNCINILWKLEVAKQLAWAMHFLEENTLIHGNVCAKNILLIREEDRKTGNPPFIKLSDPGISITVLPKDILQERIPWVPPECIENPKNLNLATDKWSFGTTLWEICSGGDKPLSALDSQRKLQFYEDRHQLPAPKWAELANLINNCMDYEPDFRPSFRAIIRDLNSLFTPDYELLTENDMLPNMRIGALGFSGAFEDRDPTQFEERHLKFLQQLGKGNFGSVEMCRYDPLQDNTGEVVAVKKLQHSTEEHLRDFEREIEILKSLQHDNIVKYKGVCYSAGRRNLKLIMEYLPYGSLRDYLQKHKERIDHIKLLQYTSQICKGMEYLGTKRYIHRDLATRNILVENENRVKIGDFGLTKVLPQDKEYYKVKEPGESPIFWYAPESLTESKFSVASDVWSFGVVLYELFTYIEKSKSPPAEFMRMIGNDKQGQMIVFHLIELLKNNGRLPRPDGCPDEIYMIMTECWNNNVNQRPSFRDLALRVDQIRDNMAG
Protocol: 3. JAK2 (PSTATS UT7) ALPHA SCREEN ASSAY
Erythropoietin (EPO) is known to transduce its signal through EPO receptor via Jak2. Activity against Jak2 was therefore measured by determining inhibition of EPO induced phosphorylation of STATS in UT7 cells. […] Materials
Cell Type: UT7 cells engineered to express the erythropoietin (EPO) receptor; Culture Medium: Dulbecco's Modified Eagle Medium (DMEM) with 2 mM L-glutamine, 10 mM hydroxyethyl piperazineethanesulfonic acid (HEPES), 10% heat-inactivated fetal bovine serum (FBS) and Stock EPO (5000U in 250 uL, need 5U/mL, so add 250 μL to 1L of media); Assay Medium: 5% FBS ultra-low IgG and 1% Pen/Strep. Compounds were made-up in 100% dimethyl sulfoxide (DMSO).
Day One - Starve Cells: 4 Flasks for one 384 plate (spin down @1000 rpm for 10 minutes and add DMEM with no EPO).
(§1) Day Two—Compound Dilutions:
i. Manual 8-point 1:3 dilution curve: 5 mM top concentration dispensed in row A of a
Corning 96-well polypropylene plate, columns 2-12. DMSO dispensed in position A01 for low and high controls. Compounds were serially diluted 1:3 by adding 10 μL stock to 20 μL DMSO down the plate.
ii. Media dilution of compounds: Serially diluted compounds were diluted 1:50 in assay medium by adding 4 μL compound to 196 μL assay medium in a Corning 96-well polypropylene plate.
384 Alpha Screen Plate Set up: Transferred 2.5 μL/well of compound solution from last dilution plate. Replicates were vertical, so that one column of the 96-well dilution plate goes into one column on the 384-well plate twice. Plated 1×10^5 starved cells/well in 5μL. Washed cells in 10 mL Hank's balanced salt solution (HBSS) after spinning down. Counted live cells. Multiplied by dilution factor and 10,000 (constant) to get the concentration of viable cells. Multiplied by volume of cells to get the total number of live cells. Divided by 20,000,000 cells/mL to get the volume needed. Subtracted the original volume to get the volume to be added to get the final concentration of cells. Mixed in reservoir if needed, ensuring that all cell clumps are broken up (if not broken up, they were removed from the suspension). Cells were plated at 5 μL/well in gray Alpha Screen 384-well plate. Spinned the plate to bring the contents to the bottom of the wells at 400 rpm for 2 minutes. Top final compound concentration: 25 μM. Sealed with adhesive and tapped gently. Incubated cells at 37° C. for 30 minutes.
c. EPO Stimulation (p STATS)
Once cells were in incubator, immediately prepared working stock of EPO (1 nM final assay concentration). EPO stock=2860 nM of sterile filtered liquid in sodium citrate buffer (1 liter of ddH2O containing 5.9 g of sodium citrate, 5.8 g of sodium chloride and 0.06 g of citric acid). Diluted 1:22.72 by adding 4.44 stock EPO to 95.6 pi assay media, then dilute again […] depending on how much volume is needed for the assay plates. Used assay medium to bring to volume. Added 2.5 μL EPO to each well. Spinned plate at 400 rpm briefly; tap the plate gently before covering with an adhesive seal. Cells were incubated at 37° C. for 20 minutes.
Added 2.5 μL of 5X Lysis buffer to each well. Spinned plate at 400 rpm briefly. Incubated at room temperature (on orbital shaker) for 10 minutes.
e. Protein (A) Acceptor Beads Preparation: (Light sensitive)
(§2) Phosphorylated Signal Transducer and Activator of Transcription 5 (pSTAT5) was quantified using the PerkinElmer SureFire pSTATS (Tyrosine 694/699) Assay. Calculated total volume needed (wells×15 μL×30%). Divided total volume by 5 to get volume of activation buffer. Subtracted volume of activation buffer from total volume and divide by 40 to get volume of acceptor beads (add last). Total volume - acceptor bead volume - activation buffer to get volume of reaction buffer. Added 15 μL to each well and covered with foil. Shaked on orbital shaker for 2 hours at 500 rpm.
(§3) f. Streptavidin Donor Beads Preparation:
Calculated total volume needed (wells×6μL×30%). […]

Jak1 = molecular target: T2, Jak1 (Homo sapiens, UniProt P23458); assay: Jak1 (PSTAT3 TF1) alpha screen assay: inhibition of IL-6 induced phosphorylation of STAT3 in TF1 cells; type: cell-based; conditions: calculated from tabulated EC50 data (Jak1 / Tyk2)
T2 construct: endogenous in cells; host or cells: TF1 cells
T2 sequence (P23458 whole entry): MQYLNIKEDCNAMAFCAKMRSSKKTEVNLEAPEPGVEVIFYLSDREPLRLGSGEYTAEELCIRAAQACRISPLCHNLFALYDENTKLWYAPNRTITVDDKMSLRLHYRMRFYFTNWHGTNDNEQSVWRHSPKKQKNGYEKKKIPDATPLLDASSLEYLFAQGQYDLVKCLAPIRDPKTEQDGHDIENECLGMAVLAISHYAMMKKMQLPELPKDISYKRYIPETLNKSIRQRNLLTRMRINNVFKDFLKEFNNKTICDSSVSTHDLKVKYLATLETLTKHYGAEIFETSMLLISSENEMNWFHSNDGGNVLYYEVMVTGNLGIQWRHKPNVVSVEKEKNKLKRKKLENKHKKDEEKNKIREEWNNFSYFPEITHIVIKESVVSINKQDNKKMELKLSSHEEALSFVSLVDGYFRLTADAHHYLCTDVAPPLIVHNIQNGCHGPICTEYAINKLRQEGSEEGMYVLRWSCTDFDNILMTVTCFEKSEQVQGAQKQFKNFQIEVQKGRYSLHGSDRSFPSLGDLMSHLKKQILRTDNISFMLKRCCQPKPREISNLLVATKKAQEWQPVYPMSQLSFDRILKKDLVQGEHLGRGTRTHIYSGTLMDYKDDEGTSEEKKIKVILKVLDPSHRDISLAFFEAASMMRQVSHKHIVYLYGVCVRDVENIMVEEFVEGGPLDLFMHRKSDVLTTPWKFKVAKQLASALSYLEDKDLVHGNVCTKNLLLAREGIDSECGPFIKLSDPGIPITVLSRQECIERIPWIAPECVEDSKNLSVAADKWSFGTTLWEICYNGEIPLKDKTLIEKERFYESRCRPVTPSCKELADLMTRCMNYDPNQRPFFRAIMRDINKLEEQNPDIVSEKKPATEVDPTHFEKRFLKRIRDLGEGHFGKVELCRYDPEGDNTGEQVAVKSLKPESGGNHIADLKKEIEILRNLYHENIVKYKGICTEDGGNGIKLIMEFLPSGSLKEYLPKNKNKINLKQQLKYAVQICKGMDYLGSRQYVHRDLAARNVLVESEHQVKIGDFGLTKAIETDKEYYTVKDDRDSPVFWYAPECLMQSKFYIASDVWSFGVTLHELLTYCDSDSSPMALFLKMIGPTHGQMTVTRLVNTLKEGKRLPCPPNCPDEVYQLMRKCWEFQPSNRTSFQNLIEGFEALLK
Protocol: 2. JAK1 (PSTAT3 TF1) ALPHA SCREEN ASSAY
IL-6 is known to transduce its signal through IL-6 receptor via Jak1. Activity against Jak1 was therefore measured by determining inhibition of IL-6 induced phosphorylation of STAT3 in TF1 cells.
Cell Type: TF1 Cells; Culture Medium: RPMI 1640 Medium, 2mM L-glutamine, 10% heat- inactivated fetal bovine serum (FBS), 10 mM hydroxyethyl piperazineethanesulfonic acid (HEPES), and 2 ng/mL recombinant human interleukin-6(IL-6); Assay Medium: Dulbecco's Modified Eagle Medium (DMEM) medium with 2 mM L-glutamine, 10 mM HEPES, 100 U/mL penicillin/streptomycin, 1.5 g/L sodium bicarbonate, 4.5 g/L glucose, 1 mM sodium pyruvate, 10% heat-inactivated FBS; Compound Preparation: Compounds are dissolved in 100% dimethyl sulfoxide (DMSO).
Day One—Starve Cells: 4 Flasks for one 384 plate (spin down @1000 rpm for 10 minutes and add RPMI 1640 Medium, 2 mM L-glutamine, 10% FBS, 10 mM HEPES with no IL-6 -incubate overnight).
as §1
i. Manual 8-point 1:5 dilution curve: 5 mM top concentration dispensed in row A of a
Corning 96-well polypropylene plate, columns 2-12. DMSO dispensed in position A01 for low and high controls. Compounds were serially diluted 1:5 by adding 10 μL stock to […] DMSO down the plate.
ii. Media dilution of compounds: Serially diluted compounds were further diluted 1:12.5 in assay medium by adding 4 μL compound to 46 μL assay medium in a Corning 96-well polypropylene plate.
384 Alpha Screen Plate Set up: Transfer 2.5 μL/well of compound solution from assay media dilution plate. Replicates were vertical, one column of the 96-well dilution plate goes into one column on the 384-well plate twice. Plated 1×10^5 starved cells/well in 5 μL. Washed cells in 10 mL DMEM medium after spinning down. Brought cell pellet up in assay media. Counted live cells. Multiplied by dilution factor and 10,000 (constant) to get the concentration of viable cells. Multiplied by volume of assay media used to bring up cells to get the total number of live cells. Divided by 20,000,000 cells/mL to get the volume needed. Cells were plated at 5 μL/well in gray Alpha Screen 384-well plate. Spinned the plate to bring the contents to the bottom of the wells at 300 rpm for 60 seconds. Top final compound concentration: 25 μM. Sealed with adhesive and tapped gently. Incubated plate at 37° C. for 30 minutes. c. IL-6 Stimulation (pSTAT3)
Once cells were in incubator, immediately prepared working stock of IL-6 (100 ng/mL final concentration). IL-6 stock=10 μg/mL of IL-6 in phosphate buffered saline with 0.1% bovine serum albumin. Diluted 1:25 by adding 60 μL stock IL-6 to 1440 μL assay media. Added 2.5 μL IL-6 to each well. Spinned plate at 300 rpm briefly; tapped the plate gently before covering with an adhesive seal. Incubated plate at 37° C. for 30 minutes.
Added 2.5 μL of 5X Lysis buffer to each well. Incubated at room temperature on orbital shaker for 10 minutes.
e. Protein (A) Acceptor Beads Preparation:
as §2, with “3 (pSTAT3)” for “5 (pSTAT5)”, “pSTAT3” for “pSTATS”, “705)” for “694/699)”, “(wells×[…]×25%).” for “(wells×15 μL×30%).”, “volume−acceptor” for “volume - acceptor”, “volume−activation buffer=volume” for “volume - activation buffer to get volume”
as §3
Calculated total volume needed (wells×[…]×25%). Divided total volume by 20 to get volume of donor beads (add last). Subtracted volume of donor beads from total volume to get volume of dilution buffer. Added 6 μL to each well and covered with foil. Shaked on orbital shaker overnight at 500 rpm.
Read plate on a Perkin Elmer Envision. […]

Compound	Tyk2 selectivity over Jak2 (Jak2)	Tyk2 selectivity over Jak1 (Jak1)
COCc1cc(-c2cn(C)c3cnc(NC(N)=O)cc23)nc([C@]2(OC)CCOC2)c1 [Example 3, (R)-1-(3-(4-(Methoxymethyl)-6-(3-methoxytetrahydrofuran-3-yl)pyridin-2-yl)-1-methyl-1H-pyrrolo[2,3-c]pyridin-5-yl)urea]	>714-fold	514-fold
CC[C@@]1(c2cccc(-c3cn(C)c4cnc(NC(N)=O)cc34)n2)CCOC1 [Example 3.2, (S)-1-(3-(6-(3-ethyltetrahydrofuran-3-yl)pyridin-2-yl)-1-methyl-1H-pyrrolo[2,3-c]pyridin-5-yl)urea]	>1786-fold	243-fold
COCc1cc(-c2cn(C3COC3)c3cnc(NC(C)=O)cc23)nc([C@]2(OC)CCOC2)c1 [Example 4, (R)-N-(3-(4-(methoxymethyl)-6-(3-methoxytetrahydrofuran-3-yl)pyridin-2-yl)-1-(oxetan-3-yl)-1H-pyrrolo[2,3-c]pyridin-5-yl)acetamide]	>182-fold	>730-fold
CO[C@@]1(c2cc(C(F)F)cc(-c3cn(C4COC4)c4cnc(NC(C)=O)cc34)n2)CCOC1 [Example 4.3, (R)-N-(3-(4-(difluoromethyl)-6-(3-methoxytetrahydrofuran-3-yl)pyridin-2-yl)-1-(oxetan-3-yl)-1H-pyrrolo[2,3-c]pyridin-5-yl)acetamide]	>144-fold	310-fold
CO[C@@]1(c2cc(OCC3COC3)cc(-c3cn(C)c4cnc(NC(C)=O)cc34)n2)CCOC1 [Example 6, (R)-N-(3-(6-(3-Methoxytetrahydrofuran-3-yl)-4-(oxetan-3-ylmethoxy)pyridin-2-yl)-1-methyl-1H-pyrrolo[2,3-c]pyridin-5-yl)acetamide]	>500-fold	420-fold
CO[C@@]1(c2cc(OCC[C@@H](C)O)cc(-c3cn(C)c4cnc(NC(C)=O)cc34)n2)CCOC1 [Example 7]	>28-fold	39-fold
CO[C@@]1(c2cc(OCC[C@H](C)O)cc(-c3cn(C)c4cnc(NC(C)=O)cc34)n2)CCOC1 [Example 9, N-(3-(4-((S)-3-Hydroxybutoxy)-6-((R)-3-methoxytetrahydrofuran-3-yl)pyridin-2-yl)-1-methyl-1H-pyrrolo[2,3-c]pyridin-5-yl)acetamide]	>294-fold	494-fold
CO[C@@]1(c2cc(OCCO)cc(-c3cn(C)c4cnc(NC(C)=O)cc34)n2)CCOC1 [Example 10, (R)-N-(3-(4-(2-Hydroxyethoxy)-6-(3-methoxytetrahydrofuran-3-yl)pyridin-2-yl)-1-methyl-1H-pyrrolo[2,3-c]pyridin-5)-ypacetamide]	>275-fold	297-fold
CO[C@@]1(c2cc(O[C@H]3C[C@H](O)C3)cc(-c3cn(C)c4cnc(NC(C)=O)cc34)n2)CCOC1 [Example 11, N-(3-(4-((trans)-3-Hydroxycyclobutoxy)-6-((R)-3-methoxytetrahydrofuran-3-yl)pyridin-2-yl)-1-methyl-1H-pyrrolo[2,3-c]pyridin-5-yl)acetamide]	>481-fold	442-fold
CO[C@@]1(c2cncc(-c3cn(C)c4cnc(NC(N)=O)cc34)n2)CCOC1 [Example 12, (R)-1-(3-(6-(3-Methoxytetrahydrofuran-3-yl)pyrazin-2-yl)-1-methyl-1H-pyrrolo[2,3-c]pyridin-5-yl)urea]	>102-fold	66-fold
CO[C@@]1(c2cc(C#N)cc(-c3cn(C)c4cnc(NC(N)=O)cc34)n2)CCOC1 [Example 12.3, (R)-1-(3-(4-cyano-6-(3-methoxytetrahydrofuran-3-yl)pyridin-2-yl)-1-methyl-1H-pyrrolo[2,3-c]pyridin-5-yl)urea]	>266-fold	138-fold
COc1cc(-c2cn(C)c3cnc(NC(N)=O)cc23)nc([C@]2(OC)CCOC2)c1 [Example 12.6, (R)-1-(3-(4-methoxy-6-(3-methoxytetrahydrofuran-3-yl)pyridin-2-yl)-1-methyl-1H-pyrrolo[2,3-c]pyridin-5-yl)urea]	>641-fold	385-fold
